Data set [1] concerns SKOV-3 ovarian cancer cell. As to the kind of experiment: In vitro cytotoxicity of dolastatin derivatives (PrestoBlue cell viability). Format: cell-based, Human. The note with it: for IC50: concentration range wherein SKOV-3 cell viability falls to 50%, 96 h, measured range 1 nM-10 μM; for cytotoxicity compared to 1 (MMAF): SKOV-3, applied to cell culture medium; for cytotoxicity compared to 2 (monomethyldolastatin 10): SKOV-3. On the procedure: Human ovarian cancer cell line SKOV-3 was from the ATCC (Manassas, Va., USA). The cells were grown according to the manufacturer's recommendations. Log phase cultures were collected and 5000 cells/well were seeded onto 96-well plates and incubated for 24 h. Serial dilutions of test molecules from a stock solution of 100 μM in 10% DMSO were made in cell culture medium, added to cells (maximum concentration of dimethylsulphoxide was 1%) and cultures were incubated further for 96 h. Cell viability was evaluated using PrestoBlue cell viability reagent (Life Technologies, Carlsbad, Calif., USA) according to the manufacturer's instructions. Cells were incubated for 2 h, and dye reduction was measured by absorbance at 570 nm. The compounds were assayed 1-2 times in triplicate.
Results of an exemplary assay are shown in FIG. 1, in which compound numbering is according to Example 1. The results are expressed in Table 1 as IC50 values of the analyzed derivatives.

Data set [2] can be described thus: Hydrophilicity by reverse-phase HPLC elution. It counts as physicochemical. The note with it: C-18 reverse-phase column, eluted at lower ACN concentration. From the text:
The products were purified by Äkta purifier 10 (GE Healthcare) HPLC instrument with Gemini-NX-5u C-18 reverse-phase column (4.6×250 mm, 110 Å (Phenomenex)) eluted with ACN gradient in aqueous ammonium hydrogen carbonate or aqueous trifluoroacetic acid.

Where a SMILES comes first, the peptide text is derived from it. [ ]: non-standard residue; d: D form. Dolaproine = CO[C@@H]([C@@H]1CCCN1)[C@@H](C)C(=O)O; Dil = CC[C@H](C)[C@H](NC)[C@@H](CC(=O)O)OC; NMeV = CN[C@H](C(=O)O)C(C)C Where only a bound is given, the exact number is not on record here.

As a reminder, the IC50 is the concentration needed to halve the response being measured. The low end stands for greater potency, the high end for weaker potency.

`CC[C@H](C)[C@@H]([C@@H](CC(=O)N1CCC[C@H]1[C@H](OC)[C@@H](C)C(=O)N[C@@H](Cc1ccccc1)C(=O)O)OC)N(C)C(=O)[C@@H](NC(=O)[C@@H](NC)C(C)C)C(C)C` [Compound 1, Monomethylauristatin F, reference compound] (H-[NMeV]V[Dil][Dolaproine]F-OH): the IC50 in data set [1] fell in the range of 0.1 to 1 µM.

Regarding `CN[C@H](C(=O)N[C@H](C(=O)N(C)[C@@H](C(C)C)[C@@H](CC(=O)N1CCC[C@H]1[C@H](OC)[C@@H](C)C(=O)N[C@@H](Cc1ccccc1)c1nccs1)OC)C(C)C)C(C)C` [Compound 2, monomethyldolastatin 10, reference compound], in data set [1], the IC50 was < 0.001 µM.

Take `CCC(C)C(C(CC(=O)N1CCCC1C(OC)C(C)C(=O)NC(Cc1ccccc1)C(=O)O)OC)N(C)C(=O)C(NC(=O)C(C(C)C)N(C)CCC(O)C(O)C(O)CO)C(C)C` [Compound 5, N-(2-deoxy-D-glucosyl)-MMAF]: the “hydrophilicity compared to MMAF (1) and N-(3-butynyl)-MMAF (6)” value in data set [2] is given as “more hydrophilic”. Further, the IC50 in data set [1] (Homo sapiens, SK-OV-3) was found to be 1 µM. In addition, in data set [1], the “cytotoxicity compared to 1 (MMAF)” value is “equally or only slightly less cytotoxic”.

In the case of `C#CCCN(C)C(C(=O)NC(C(=O)N(C)C(C(C)CC)C(CC(=O)N1CCCC1C(OC)C(C)C(=O)NC(Cc1ccccc1)C(=O)O)OC)C(C)C)C(C)C` (stereo not drawn) [Compound 6, N-(3-butynyl)-MMAF], the IC50 in data set [1] (Homo sapiens, SK-OV-3) was < 0.001 µM. In addition, in data set [1], the “cytotoxicity compared to 1 (MMAF)” value is on record as “more cytotoxic”.

In data set [1] (Homo sapiens, SK-OV-3), `CCC(C)C(C(CC(=O)N1CCCC1C(OC)C(C)C(=O)NC(Cc1ccccc1)C(=O)O)OC)N(C)C(=O)C(NC(=O)C(C(C)C)N(C)CC(O)C(O)C(O)C(O)COC1OC(CO)C(O)C(O)C1O)C(C)C` [Compound 8, N-[6-O-(β-D-galactopyranosyl)-D-galactosyl]-MMAF] yielded an IC50 of 1 to 10 µM. Besides, the “cytotoxicity compared to 1 (MMAF)” value in data set [1] was “less cytotoxic”.

Regarding `CCC(C)C(C(CC(=O)N1CCCC1C(OC)C(C)C(=O)NC(Cc1ccccc1)C(=O)O)OC)N(C)C(=O)C(NC(=O)C(C(C)C)N(C)CC(O)C(O)C(OC1OC(CO)C(OC2OC(CO)C(O)C(O)C2O)C(O)C1O)C(O)CO)C(C)C` [Compound 10, N-{4-O-[4-O-(α-D-galactopyranosyl)-β-D-galactopyranosyl]-D-glucosyl}-MMAF], the IC50 in data set [1] (Homo sapiens, SK-OV-3) fell in the range of 1 to 10 µM.

As to `CCC(C)C(C(CC(=O)N1CCCC1C(OC)C(C)C(=O)NC(Cc1ccccc1)C(=O)O)OC)N(C)C(=O)C(NC(=O)C(C(C)C)N(C)CC(O)C(O)C(OC1OC(CO)C(O)C(OC2(C(=O)O)CC(O)C(NC(C)=O)C(C(O)C(O)CO)O2)C1O)C(O)CO)C(C)C` [Compound 11, N-{4-O-[3-O-(α-N-acetylneuraminyl)-β-D-galactopyranosyl]-D-glucosyl}-MMAF], in data set [1], the “cytotoxicity compared to 1 (MMAF)” value is reported as “less cytotoxic” and the IC50 was > 10 µM.

As for `CCC(C)C(C(CC(=O)N1CCCC1C(OC)C(C)C(=O)NC(Cc1ccccc1)c1nccs1)OC)N(C)C(=O)C(NC(=O)C(C(C)C)N(C)CC(O)C(O)C(O)C(O)CN=[N+]=[N-])C(C)C` [Compound 13, N-(6-azido-6-deoxy-D-galactosyl)-dolastatin 10], in data set [1] (Homo sapiens, SK-OV-3), the IC50 was < 0.001 µM. The “cytotoxicity compared to 2 (monomethyldolastatin 10)” value in data set [1] was “equally or only slightly less cytotoxic”.

`CCC(C)C(C(CC(=O)N1CCCC1C(OC)C(C)C(=O)NC(Cc1ccccc1)C(=O)O)OC)N(C)C(=O)C(NC(=O)C(C(C)C)N(C)C(=O)CCCC(=O)O)C(C)C` (stereo not drawn) [Compound 14b, N-glutaryl-MMAF]: in data set [1] (Homo sapiens, SK-OV-3), the IC50 was 0.1 to 1 µM. Also, the “cytotoxicity compared to 2 (monomethyldolastatin 10)” value in data set [1] was “equally or only slightly less cytotoxic”.

“N-(6-O-propargyl-D-galactosyl)-MMAF [Compound 3]” had an IC50 in data set [1] of 0.1 to 10 µM.

“N-(6-azido-6-deoxy-D-galactosyl)-MMAF [Compound 4]” came in with an IC50 in data set [1] of 0.1 to 1 µM.

These data come from patent publication US10973922B2, “Glycoprotein-toxic payload conjugates” (GLYKOS FINLAND OY, priority 2013, dated 2021).
